Laboratory results published in patent publication US20250382306A1, “HETEROCYCLIC COMPOUND AS TAAR1 LIGAND AGONIST” (SHANDONG LUYE PHARMACEUTICAL CO., LTD., priority 2022, published 2025).
Like-named read-outs stand apart in the source and are kept apart here.

What was measured:
[1] = target: T1, TAAR1 (Homo sapiens, UniProt Q96RJ0); test: In vitro TAAR1 functional activity (cAMP Hunter CHO-K1 TAAR1 Gs cell line, HitHunter cAMP assay); assay type: cell-based; settings: chemiluminescence cAMP readout
T1 construct: expressed in transfected cells; host or cells: CHO-K1 (cAMP Hunter TAAR1 Gs cell line)
T1 sequence (Q96RJ0 1-339): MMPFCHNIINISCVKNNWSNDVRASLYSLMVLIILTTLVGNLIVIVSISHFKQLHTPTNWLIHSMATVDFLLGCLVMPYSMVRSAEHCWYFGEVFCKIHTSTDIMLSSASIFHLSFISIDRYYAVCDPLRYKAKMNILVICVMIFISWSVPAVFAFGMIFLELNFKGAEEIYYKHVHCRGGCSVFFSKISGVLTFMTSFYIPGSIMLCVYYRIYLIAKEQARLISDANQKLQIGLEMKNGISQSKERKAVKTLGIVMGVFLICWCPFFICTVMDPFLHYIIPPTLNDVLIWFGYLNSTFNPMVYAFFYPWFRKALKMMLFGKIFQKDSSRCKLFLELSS
Procedure: Test Example 1. In Vitro Evaluation of Intrasynaptic and Extrasynaptic Functional Activities in Cells
Cell: CAMP Hunter™ CHO-K1 TAAR1 Gs Cell Line
Assay Reagent: HitHunter cAMP Assay Detection Kit
Experimental Instrument: PerkinElmer Envision™ Chemiluminescence Signal Detector
Experimental method: cell treatment: The cAMP Hunter cell strain was cultured at 37° C. with 5% CO2 to 70-80% confluence. The cells were harvested, and the cell density was adjusted to 1.5×10^4 cells/mL. The cells were seeded in a white-wall 384-well microwell plate at a volume of 20 μL, and incubated at 37° C. with 5% CO2 overnight. The cell medium was discarded, and 15 μL of 2:1 HBSS/10 mM Hepes:cAMP XS+Ab reagent was added to each well. The mother solution of the sample was diluted with an assay buffer in a concentration gradient to a 4× sample, and 5 μL of the 4× sample was added to each well. The plate was incubated at 37° C. or room temperature for 30 or 60 min. […] 20 μL of cAMP XS+EA reagent was added to each well, and the plate was incubated at room temperature for 3 h. The chemiluminescence signal was read using a PerkinElmer Envision™ detector.
Data analysis: EC50 was calculated using CBIS data analysis software (ChemInnovation, CA). The activity percentage was calculated using the following formula: % activity=100%×(test sample average RLU−solvent control average RLU)/(maximum control average RLU−solvent control average RLU).

[2] = Pharmacokinetic study in rats; assay type: in vivo, SD rats; settings: for Cmax: read-out: Cmax or C0
Procedure: Test Example 2. Pharmacokinetic Study in Rats
Rat: SD Rats Weighing 200-250 g
(§1) Reagent: acetonitrile, MERCK; methanol, MERCK; formic acid, Sigma; tolbutamide, Sigma.
Instrument: water purification equipment, Millipore; electronic balance, METTLER TOLEDO; high-speed benchtop centrifuge, Thermno; water bath thermostatic oscillator, Shanghai Yiheng Technical Co., Ltd.; vortex oscillator, Thermno; liquid chromatography-mass spectrometry, AB SCIEX.
Method: The SD rats were dosed intravenously (IV) and intragastrically (IG), 3 SD rats in each group. Compounds 1-b, 2-a and L27 were separately administered, and the vehicles were DMSO and Tween 80. […] Whole blood samples were separately collected at 0, 5 m (intravenous), 15 m, 30 mi, 1 h, 2 h, 4 h, 6 h, 8 h, 12 h, and 24 h. The whole blood was placed in a heparinized EP tube and centrifuged at 13,500 rpm for 10 min to separate the plasma. After pretreatment, the plasma was analyzed by LC-MS/MS to determine the concentration of the test compound in the plasma.

[3] = Pharmacokinetic study in dogs; settings: dog, in vivo, po; Beagle dogs, plasma, after intragastric L15 hydrochloride 2 mg/kg (as free base); label = analyte
Procedure: Test Example 3. Pharmacokinetic Study in Dogs
Dog: Beagle dogs weighing 11-13 kg
as §1
Instrument: water purification equipment, Millipore; electronic balance, METTLER TOLEDO; high-speed benchtop centrifuge, Thermo; water bath thermostatic oscillator, Shanghai Yiheng Technical Co., Ltd.; vortex oscillator, Thermo; liquid chromatography-mass spectrometry, AB SCIEX.
Method: L15 hydrochloride was administered intragastrically at a dose of 2 mg/kg (calculated based on free base), 2 Beagle dogs in each group. The vehicles were DMSO and Tween 80. Whole blood samples were separately collected at 0, 5 min, 15 min, 30 min, 1 h, 2 h, 3 h, 4 h, 6 h, 8 h, 12 h, and 24 h. The whole blood was placed in a heparinized EP tube and centrifuged at 13,500 rpm for 10 min to separate the plasma. After pretreatment, the plasma was analyzed by LC-MS/MS to determine the concentration of the test compound in the plasma.

[4] = tested on: MK801-induced overactivity; test: Pharmacodynamic study in mice, MK-801 overactivity model (Test Example 4); assay type: in vivo; settings: C57 mice; for total movement distance after modeling: MK-801 0.8 mg/kg i.p., 30-60 min after administration, p<0.05 vs model group 63052.14±21618.80 mm
Procedure: Test Example 4. Pharmacodynamic Study in Mice
Mouse: C57 mice weighing 20-22 g
Instrument: electronic balance, METTLER TOLEDO; TopScan monitoring system.
(§2) 4.1. model preparation: MK-801 induces overactivity in mice and is commonly used for preclinical evaluation of antipsychotics. The modeling method in this test was: The mice were injected with MK-801 intraperitoneally in at single dose of 0.8 mg/kg.
4.2. Experimental grouping: The mice were randomly divided into model group, 1-b group, and L27 group, 10 animals in each group, as shown in Table 5.
(§3) The mice were randomly divided into groups. At the start of the test, the test samples were administered intragastrically at an single dose according to the doses shown in Table 5, and the mice were placed in an activity chamber. After 30 min, each mouse was injected intraperitoneally with 0.8 mg/kg of MK-801 for modeling, and placed in the activity chamber again. The movement distance (mm) of the mice after modeling (i.e., within 30-60 min after administration) was recorded and analyzed using a TopScan monitoring system.
(§4) […] The total movement distance of the mice after modeling (30-60 min after administration) was recorded.
(§5) Data analysis and processing were carried out using Graphpad 5.0 software. ANOVA test was used to compare the total movement distance between each administration group and model group within 30-60 min.

[5] = tested on: MK801-induced overactivity; test: Pharmacodynamic study in mice, MK-801 overactivity model (Test Example 5); assay type: in vivo, C57 mice; settings: 3 mg/kg intragastric; for total movement distance after modeling: MK-801 0.8 mg/kg i.p., 30-60 min after administration, p<0.05 vs model group 101535.71±26076.11 mm
Procedure: as §2, §3, §4, §5
Test Example 5. Pharmacodynamic Study in Mice
5.1. Experimental grouping: The mice were randomly divided into model group, 1-b group, and 2-a group, 5 animals in each group, as shown in Table 6. The model preparation, test method, observation of indexes and statistical method were the same as those in Test Example 4.

[6] = cAMP Hunter CHO-K1 TAAR1 Gs cell line, read-out: EC50
[7] = EC50, cAMP Hunter CHO-K1 TAAR1 Gs cell line
[8] = SD rats, 1-b IV 2 mg/kg, analyte 1-b
[9] = Sprague-Dawley, rat, in vivo, po, SD rats, plasma, 1-b IG 5 mg/kg, analyte 1-b
[10] = Sprague-Dawley, rat, in vivo, SD rats, plasma, 1-b IV 2 mg/kg, analyte 1-b

OC[C@H]1OCCc2ccsc21 [Compound 39-a]
EC50 [1, 6]: > 10 µM

CNCC1OCCc2ccoc21 (centres unmarked) [Compound 37]
EC50 [1, 6]: 1.23 µM

CN1CCc2ccsc2C1CN (single isomer, unassigned) [Compound 42-b]
EC50 [1, 6]: 0.244 µM

Fc1csc(C2CNCCO2)c1 (centres unmarked) [Compound 8]
EC50 [1, 7]: 0.295 µM

c1cc2c(s1)[C@@H]1CNCCN1CC2 [Compound 1-b]
EC50 [1, 6]: 0.062 µM | F ([2]; SD rats, 1-b IG 5 mg/kg vs IV 2 mg/kg): 66.6 ± 8.12% | Cl_obs [2, 8]: 28.8 ± 3.25 mL/min/kg | Vss_obs [2, 8]: 2.91 ± 0.68 L/kg | AUC(0-t) [2, 9]: 9.95 ± 1.21 µM·h | MRT last [2, 9]: 2.33 ± 0.465 h | Tmax [2, 9]: 0.417 ± 0.144 h | half-life [2, 9]: 1.85 ± 0.217 h | Cmax [2, 9]: 3.73 ± 0.846 µM | AUC(0-t) [2, 10]: 5.97 ± 0.642 µM·h | MRT last [2, 10]: 1.6 ± 0.203 h | half-life [2, 10]: 1.76 ± 0.344 h | Cmax [2, 10]: 7.54 ± 2.28 µM | AUC(0-t) [3]: 0.0547 µM·h | Cmax [3]: 0.0223 µM | MRT last [3]: 1.68 h | Tmax [3]: 1.5 h | effect on MK801-induced overactivity (conclusion) ([4]; 10 mg/kg intragastric): good inhibition effect | total movement distance after modeling ([4]; 1-b 10 mg/kg intragastric): 6493.12±6228.87 mm | effect on MK801-induced overactivity (conclusion) [5]: good inhibition effect | total movement distance after modeling [5]: 13644.54±10814.85 mm

CNCC1OC(COC)Cc2ccsc21 (centres unmarked) [Compound 30]
EC50 [1, 6]: > 10 µM

NCC1SCCc2ccsc21 (single isomer, unassigned) [Compound 43-b]
EC50 [1, 6]: 0.031 µM

CNC[C@H]1NCCc2ccsc21 [Compound 38-b]
EC50 [1, 6]: 7.96 µM

CN1CCN2CCc3ccsc3[C@H]2C1 [Compound 2-b]
EC50 [1, 6]: > 10 µM

COc1ccsc1C1CNCCO1 (single isomer, unassigned) [Compound 10-b]
EC50 [1, 6]: 0.386 µM

OC[C@@H]1OCCc2ccsc21 [Compound 39-b]
EC50 [1, 6]: > 10 µM

CC(C)Oc1ccsc1C1CNCCO1 (centres unmarked) [Compound 15]
EC50 [1, 7]: > 10 µM

COc1csc([C@H]2CNCCO2)c1 [Compound 11-b]
EC50 [1, 7]: 2.16 µM

CNCC1OCC(c2ccccc2)c2ccsc21 (single isomer, unassigned) [Compound 32-c]
EC50 [1, 6]: > 10 µM

NC[C@@H]1NCCc2ccsc21 [Compound 41-a]
EC50 [1, 6]: 9.1 µM

COc1ccc([C@@H]2CNCCO2)s1 [Compound 12-a]
EC50 [1, 7]: > 10 µM

CNCC1OC(C)(C)Cc2ccsc21 (centres unmarked) [Compound 34]
EC50 [1, 6]: 1.25 µM

CNC[C@@H]1NCCc2ccsc21 [Compound 38-a]
EC50 [1, 6]: > 10 µM

CNC[C@H]1SCCc2ccsc21 [Compound 40-b]
EC50 [1, 6]: 0.522 µM

NCC1SCCc2ccsc21 (single isomer, unassigned) [Compound 43-a]
EC50 [1, 6]: > 10 µM

CNCC1OCC(c2ccccc2)c2ccsc21 (single isomer, unassigned) [Compound 32-a]
EC50 [1, 6]: > 10 µM

c1cc2c(s1)[C@H]1CNCCN1CC2 [Compound 1-a]
EC50 [1, 6]: 9.12 µM

CNCC1OCC(c2ccccc2)c2ccsc21 (single isomer, unassigned) [Compound 32-b]
EC50 [1, 6]: > 10 µM

CN1CCc2ccsc2C1CN (single isomer, unassigned) [Compound 42-a]
EC50 [1, 6]: > 10 µM

COc1ccc([C@H]2CNCCO2)s1 [Compound 12-b]
EC50 [1, 7]: 1.59 µM

CNCC1OC(C)Cc2ccsc21 (single isomer, unassigned) [Compound 28-a]
EC50 [1, 6]: > 10 µM

NC[C@H]1NCCc2ccsc21 [Compound 41-b]
EC50 [1, 6]: 0.424 µM

FC(F)COc1ccsc1C1CNCCO1 (centres unmarked) [Compound 19]
EC50 [1, 7]: > 10 µM

COc1ccsc1C1CNCCO1 (single isomer, unassigned) [Compound 10-a]
EC50 [1, 6]: 0.028 µM

CC(OC(=O)C(C)C)OC(=O)N1CCN2CCc3ccsc3[C@@H]2C1 (some centres unmarked) [Compound L27]
Detection of L27 in plasma ([2]; SD rats, after intragastric L27 9 mg/kg): L27 was not detected | total movement distance after modeling ([4]; L27 hydrochloride 16 mg/kg intragastric): 8100.56±7787.37 mm

CN1CCN2CCc3ccsc3[C@@H]2C1 [Compound 2-a]
EC50 [1, 6]: 4.4 µM | Exposure and bioavailability (conclusion) ([2]; rat, in vivo): relatively high exposure and bioavailability | effect on MK801-induced overactivity (conclusion) [5]: good inhibition effect | total movement distance after modeling [5]: 9161.61±4711.10 mm

CNCC1OCC(C)(C)c2ccsc21 (centres unmarked) [Compound 35]
EC50 [1, 6]: > 10 µM

CNCC1OC(C)Cc2ccsc21 (single isomer, unassigned) [Compound 28-b]
EC50 [1, 6]: 1.84 µM

CNC[C@@H]1SCCc2ccsc21 [Compound 40-a]
EC50 [1, 6]: > 10 µM

COc1csc([C@@H]2CNCCO2)c1 [Compound 11-a]
EC50 [1, 7]: > 10 µM

CNCC1c2sccc2CCN1C (centres unmarked) [Compound 61]
EC50 [1, 6]: > 10 µM

FC(F)(F)COc1ccsc1C1CNCCO1 (centres unmarked) [Compound 20]
EC50 [1, 6]: 4.72 µM

CNCC1OCC(c2ccccc2)c2ccsc21 (single isomer, unassigned) [Compound 32-d]
EC50 [1, 6]: > 10 µM

c1cc(C2CC2)c(C2CNCCO2)s1 (centres unmarked) [Compound 59]
EC50 [1, 6]: 2.91 µM

FCCOc1ccsc1C1CNCCO1 (centres unmarked) [Compound 60]
EC50 [1, 7]: 9.8 µM

Fc1ccc(C2CNCCO2)s1 (centres unmarked) [Compound 9]
EC50 [1, 6]: 0.734 µM
